The values that follow come from US8063065B2, “Azaindazole compounds as CCR1 receptor antagonists” (Boehringer Ingelheim International GmbH, priority 2008, dated 2011).

Structures are written as SMILES.

This assay concerns the target T1, CCR1 (Homo sapiens, UniProt P32246).
T1 sequence (P32246 1-355): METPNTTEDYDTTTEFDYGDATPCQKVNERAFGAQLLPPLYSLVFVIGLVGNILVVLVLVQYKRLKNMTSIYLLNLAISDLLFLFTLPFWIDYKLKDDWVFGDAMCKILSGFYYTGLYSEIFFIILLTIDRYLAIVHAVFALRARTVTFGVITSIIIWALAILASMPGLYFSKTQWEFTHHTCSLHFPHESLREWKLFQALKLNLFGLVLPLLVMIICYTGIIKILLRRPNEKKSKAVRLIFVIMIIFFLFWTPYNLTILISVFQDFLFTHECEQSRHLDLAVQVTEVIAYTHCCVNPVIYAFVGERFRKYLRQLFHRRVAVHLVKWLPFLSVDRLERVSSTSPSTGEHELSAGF
The assay is described as follows: Method B: calcium flux in CCR1 transfected cells (Calcium 4 dye, […] FDSS6000), block of the CCR1/MIP-1α interaction. In kind it is cell-based. The note with it: Method B: Calcium 4 dye, MIP-1alpha at EC80. In short, it runs like this:
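Calcium flux on an FDSS6000 was triggered by MIP-1α at its EC80 in stably CCR1/G-alpha-16-expressing non-adherent cells. Before this, Calcium 4-loaded cells were preincubated with compound in HBSS, 20 mM HEPES pH 7.4, 1% DMSO: 30 min at 37 C plus 30 min at room temperature. Ten 4-fold doses began at 3,000 nM, with ±MIP-1α DMSO wells as controls.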
For orientation: Calcium flux is commonly read through the fluorescence of an indicator in the cells.

In general, IC50 refers to the concentration that gives 50% inhibition. In the case of `CC[C@H](NC(=O)c1cncc2c1cnn2-c1ccc(F)cc1)c1ccnc(N(C)CCO)c1` [1-(4-Fluorophenyl)-1H-pyrazolo[3,4-c]pyridine-4-carboxylic acid ((S)-1-{2-[(2-hydroxy-ethyl)-methyl-amino]-pyridin-4-yl}-propyl)-amide], the IC50 turned out to be 2 nM.
On to `CSc1ncc([C@H](C)NC(=O)c2cncc3c2cnn3-c2ccc(F)cc2)o1` [1-(4-Fluorophenyl)-1H-pyrazolo[3,4-c]pyridine-4-carboxylic acid [(S)-1-(2-methylsulfanyl-oxazol-5-yl)-ethyl]-amide], for which the IC50 came out at 6 nM.
With `CC[C@H](NC(=O)c1cncc2c1cnn2-c1ccc(F)cc1)c1cc(S(C)(=O)=O)c[nH]1` [1-(4-Fluorophenyl)-1H-pyrazolo[3,4-c]pyridine-4-carboxylic acid [(S)-1-(4-methanesulfonyl-1H-pyrrol-2-yl)-propyl]-amide], the IC50 was 1 nM.
For `CC[C@@H](NC(=O)c1cncc2c1cnn2-c1ccc(F)cc1)c1ccn(S(=O)(=O)c2ccc(C)cc2)c1` [1-(4-Fluorophenyl)-1H-pyrazolo[3,4-c]pyridine-4-carboxylic acid {(R)-1-[1-(toluene-4-sulfonyl)-1H-pyrrol-3-yl]-propyl}-amide], the IC50 was 23 nM.
With `CC[C@H](NC(=O)c1cncc2c1cnn2-c1ccc(F)cc1)c1ccnc(N2CCC(S(C)(=O)=O)CC2)c1` [1-(4-Fluorophenyl)-1H-pyrazolo[3,4-c]pyridine-4-carboxylic acid [(S)-1-(4-methanesulfonyl-3,4,5,6-tetrahydro-2H-[1,2′]bipyridinyl-4′-yl)-propyl]-amide] the figure was 13 nM.
The figure for `CCC(CC)(NC(=O)c1cncc2c1cnn2-c1ccc(F)cc1)c1cnc(S(C)(=O)=O)s1` [1-(4-Fluorophenyl)-1H-pyrazolo[3,4-c]pyridine-4-carboxylic acid [1-ethyl-1-(2-methanesulfonyl-thiazol-5-yl)-propyl]-amide] is 28 nM; for `CCC(NC(=O)c1cncc2c1cnn2-c1ccc(F)cc1)C1CCN(C(=O)OC(C)(C)C)CC1` (stereo not drawn) [4-(1-{[1-(4-Fluorophenyl)-1H-pyrazolo[3,4-c]pyridine-4-carbonyl]-amino}-propyl)-piperidine-1-carboxylic acid tert-butyl ester] it is 4 nM; for `CCC(NC(=O)c1cncc2c1cnn2-c1ccc(F)cc1)C1CCCN(C(=O)OC(C)(C)C)C1` (stereo not drawn) [3-(1-{[1-(4-Fluorophenyl)-1H-pyrazolo[3,4-c]pyridine-4-carbonyl]-amino}-propyl)-piperidine-1-carboxylic acid tert-butyl ester] it is 26 nM.
In the case of `CC(C)(NC(=O)c1cncc2c1cnn2-c1ccc(F)cc1)c1ccnc(Br)c1` [1-(4-Fluorophenyl)-1H-pyrazolo[3,4-c]pyridine-4-carboxylic acid [1-(2-bromo-pyridin-4-yl)-1-methyl-ethyl]-amide], the IC50 amounted to 14 nM.
`CNc1cc([C@H](C)NC(=O)c2cncc3c2cnn3-c2ccc(F)cc2)cc(S(C)(=O)=O)n1` [1-(4-Fluorophenyl)-1H-pyrazolo[3,4-c]pyridine-4-carboxylic acid [(S)-1-(2-methanesulfonyl-6-methylamino-pyridin-4-yl)-ethyl]-amide]: the IC50 was 0.4 nM.
`CCC(NC(=O)c1cncc2c1cnn2-c1ccc(F)cc1)c1ccc(S(C)(=O)=O)[n+]([O-])c1` (stereo not drawn) [1-(4-Fluorophenyl)-1H-pyrazolo[3,4-c]pyridine-4-carboxylic acid [1-(6-methanesulfonyl-1-oxy-pyridin-3-yl)-propyl]-amide]: the IC50 was found to be 9 nM.
On to `C[C@H](NC(=O)c1cncc2c1cnn2-c1ccc(F)cc1)c1cc(S(C)(=O)=O)[nH]c(=O)c1` [1-(4-Fluorophenyl)-1H-pyrazolo[3,4-c]pyridine-4-carboxylic acid [(S)-1-(6-methanesulfonyl-2-oxo-1,2-dihydropyridin-4-yl)-ethyl]-amide], for which the IC50 stood at 3 nM.
Turning to `CC[C@H](NC(=O)c1cncc2c1cnn2-c1ccc(F)cc1)c1cccc(S(C)(=O)=O)n1` [1-(4-Fluorophenyl)-1H-pyrazolo[3,4-c]pyridine-4-carboxylic acid [(S)-1-(6-methanesulfonyl-pyridin-2-yl)-propyl]-amide], the IC50 was determined as 0.2 nM.
Turning to `CC[C@H](NC(=O)c1cncc2c1cnn2-c1ccc(F)cc1)c1ccnc(NC)c1` [1-(4-Fluorophenyl)-1H-pyrazolo[3,4-c]pyridine-4-carboxylic acid [(S)-1-(2-methylamino-pyridin-4-yl)-propyl]-amide], the IC50 is 4 nM.
As for `O=C(NCc1cc(Br)cs1)c1cncc2c1cnn2-c1ccc(F)cc1` [1-(4-Fluorophenyl)-1H-pyrazolo[3,4-c]pyridine-4-carboxylic acid (4-bromo-thiophen-2-ylmethyl)-amide], the IC50 worked out at 7 nM.
In the case of `CCC(C)(NC(=O)c1cncc2c1cnn2-c1ccc(F)cc1)c1ccnc(S(C)(=O)=O)c1` (stereo not drawn) [1-(4-Fluorophenyl)-1H-pyrazolo[3,4-c]pyridine-4-carboxylic acid [1-(2-methanesulfonyl-pyridin-4-yl)-1-methyl-propyl]-amide], the IC50 was determined as 6 nM.
Take `C[C@H](NC(=O)c1cncc2c1cnn2-c1ccc(F)cc1)c1cnc(S(C)(=O)=O)o1` [1-(4-Fluorophenyl)-1H-pyrazolo[3,4-c]pyridine-4-carboxylic acid [(S)-1-(2-methanesulfonyl-oxazol-5-yl)-ethyl]-amide]: the IC50 amounted to 19 nM.
The figure for `CCC(NC(=O)c1cncc2c1cnn2-c1ccc(F)cc1)c1nc(C(N)=O)c(C)o1` (stereo not drawn) [1-(4-Fluorophenyl)-1H-pyrazolo[3,4-c]pyridine-4-carboxylic acid [1-(4-carbamoyl-5-methyl-oxazol-2-yl)-propyl]-amide] is 26 nM; for `O=C(NCc1ccc(Br)s1)c1cncc2c1cnn2-c1ccc(F)cc1` [1-(4-Fluorophenyl)-1H-pyrazolo[3,4-c]pyridine-4-carboxylic acid (5-bromo-thiophen-2-ylmethyl)-amide] it is 19 nM.
In the case of `CC[C@H](NC(=O)c1cncc2c1cnn2-c1ccc(F)cc1)c1cccc(Cl)c1` [1-(4-Fluorophenyl)-1H-pyrazolo[3,4-c]pyridine-4-carboxylic acid [(S)-1-(3-chlorophenyl)-propyl]-amide], the IC50 was found to be 0.4 nM.
`CCC(NC(=O)c1cncc2c1cnn2-c1ccc(F)cc1)C1CCN(S(C)(=O)=O)CC1` (stereo not drawn) [1-(4-Fluorophenyl)-1H-pyrazolo[3,4-c]pyridine-4-carboxylic acid [1-(1-methanesulfonyl-piperidin-4-yl)-propyl]-amide]: the IC50 was 2 nM.
`CCC(NC(=O)c1cncc2c1cnn2-c1ccc(F)cc1)c1nc(C(N)=O)co1` (stereo not drawn) [1-(4-Fluorophenyl)-1H-pyrazolo[3,4-c]pyridine-4-carboxylic acid [1-(4-carbamoyl-oxazol-2-yl)-propyl]-amide]: the concentration for half-maximal inhibition (IC50) turned out to be 36 nM.
With `Cc1cc(CNC(=O)c2cncc3c2cnn3-c2ccc(F)cc2)cc(S(C)(=O)=O)n1` [1-(4-Fluorophenyl)-1H-pyrazolo[3,4-c]pyridine-4-carboxylic acid (2-methanesulfonyl-6-methyl-pyridin-4-ylmethyl)-amide] the figure was 5 nM; with `C[C@H](NC(=O)c1cncc2c1cnn2-c1ccc(F)cc1)c1ccnc(S(N)(=O)=O)c1` [1-(4-Fluorophenyl)-1H-pyrazolo[3,4-c]pyridine-4-carboxylic acid [(S)-1-(2-sulfamoyl-pyridin-4-yl)-ethyl]-amide], 3 nM.
Regarding `COC(=O)CCS(=O)(=O)c1cc([C@H](C)NC(=O)c2cncc3c2cnn3-c2ccc(F)cc2)ccn1` [3-[4-((S)-1-{[1-(4-Fluorophenyl)-1H-pyrazolo[3,4-c]pyridine-4-carbonyl]-amino}-ethyl)-pyridine-2-sulfonyl]-propionic acid methyl ester], the IC50 amounted to 37 nM.
Turning to `C[C@H](NC(=O)c1cncc2c1cnn2-c1ccc(F)cc1)c1cccc(Cl)c1` [1-(4-Fluorophenyl)-1H-pyrazolo[3,4-c]pyridine-4-carboxylic acid [(S)-1-(3-chlorophenyl)-ethyl]-amide], the IC50 is 5 nM.
As for `CC[C@H](NC(=O)c1cncc2c1cnn2-c1ccc(F)cc1)c1coc(S(C)(=O)=O)n1` [1-(4-Fluorophenyl)-1H-pyrazolo[3,4-c]pyridine-4-carboxylic acid [(S)-1-(2-methanesulfonyl-oxazol-4-yl)-propyl]-amide], the IC50 was 4 nM.
Regarding `CCS(=O)(=O)c1cccc([C@H](C)NC(=O)c2cncc3c2cnn3-c2ccc(F)cc2)n1` [1-(4-Fluorophenyl)-1H-pyrazolo[3,4-c]pyridine-4-carboxylic acid [(S)-1-(6-ethanesulfonyl-pyridin-2-yl)-ethyl]-amide], the IC50 is 14 nM.
Consider `CCC(NC(=O)c1cncc2c1cnn2-c1ccc(F)cc1)c1nc(C(=O)NCC(=O)OC)c(C)o1` (stereo not drawn) [{[2-(1-{[1-(4-Fluorophenyl)-1H-pyrazolo[3,4-c]pyridine-4-carbonyl]-amino}-propyl)-5-methyl-oxazole-4-carbonyl]-amino}-acetic acid methyl ester], for which the IC50 came to 26 nM.
On to `CCC(NC(=O)c1cncc2c1cnn2-c1ccc(F)cc1)C1CCN(C(C)=O)CC1` (stereo not drawn) [1-(4-Fluorophenyl)-1H-pyrazolo[3,4-c]pyridine-4-carboxylic acid [1-(1-acetyl-piperidin-4-yl)-propyl]-amide], for which the IC50 is 10 nM.
